Reference: BigSolDB 2.1

O=P(O)(c1ccccc1)c1ccccc1
Details | solubility (mole fraction)
in 2-ethoxyethanol, 288.15 K | 0.00619
in 2-ethoxyethanol, 293.18 K | 0.00716
in 2-ethoxyethanol, 298.17 K | 0.0081
in 2-ethoxyethanol, 303.04 K | 0.00924
in 2-ethoxyethanol, 308.11 K | 0.0106
in 2-ethoxyethanol, 313.15 K | 0.0118
in 2-ethoxyethanol, 318.2 K | 0.0135
in 2-ethoxyethanol, 323.16 K | 0.0151
in 2-ethoxyethanol, 328.2 K | 0.0172
in 2-ethoxyethanol, 332.96 K | 0.0196
in 2-ethoxyethanol, 338.03 K | 0.0223
in 2-ethoxyethanol, 343.24 K | 0.0252
in 2-ethoxyethanol, 348.24 K | 0.0285
in 2-ethoxyethanol, 353.25 K | 0.0321
in 2-ethoxyethanol, 358.29 K | 0.036
in 2-ethoxyethanol, 363.1 K | 0.0401
in acetic acid, 293.23 K | 0.00426
in acetic acid, 303.15 K | 0.00604
in acetic acid, 313.03 K | 0.00827
in acetic acid, 323.15 K | 0.0112
in acetic acid, 333.21 K | 0.0151
in acetic acid, 343.04 K | 0.0209
in acetone, 293.25 K | 0.00051
in acetone, 298.18 K | 0.00068
in acetone, 303.12 K | 0.00091
in acetone, 308.23 K | 0.0012
in acetone, 313.19 K | 0.00156
in acetone, 318.21 K | 0.00203
in acetone, 323.24 K | 0.00244
in benzene, 293.15 K | 0.0007
in benzene, 303.19 K | 0.00112
in benzene, 313.17 K | 0.00183
in benzene, 322.95 K | 0.00291
in benzene, 333.21 K | 0.00459
in benzene, 343.12 K | 0.00706
in ethanol, 283.15 K | 0.00575
in ethanol, 288.15 K | 0.00671
in ethanol, 293.1 K | 0.00774
in ethanol, 298.07 K | 0.00889
in ethanol, 303.07 K | 0.0102
in ethanol, 308.15 K | 0.0117
in ethanol, 313.16 K | 0.0134
in ethanol, 318.16 K | 0.0152
in ethanol, 322.84 K | 0.0173
in ethanol, 327.94 K | 0.0198
in ethanol, 333.1 K | 0.0231
in ethanol, 337.97 K | 0.0264
in ethanol, 342.9 K | 0.0302
in ethyl acetate, 293.06 K | 0.00052
in ethyl acetate, 298.15 K | 0.0006
in ethyl acetate, 303.15 K | 0.00075
in ethyl acetate, 308.17 K | 0.00098
in ethyl acetate, 313.23 K | 0.00121
in ethyl acetate, 318.04 K | 0.00144
in ethyl acetate, 323.1 K | 0.00176
in ethyl acetate, 328.13 K | 0.00208
in ethyl acetate, 333.25 K | 0.00247
in ethyl acetate, 337.95 K | 0.00318
in isopropanol, 288.15 K | 0.00426
in isopropanol, 293.15 K | 0.00503
in isopropanol, 297.98 K | 0.00594
in isopropanol, 303.09 K | 0.00696
in isopropanol, 308.05 K | 0.00803
in isopropanol, 313.15 K | 0.00931
in isopropanol, 318.06 K | 0.0107
in isopropanol, 323.08 K | 0.0123
in isopropanol, 328.12 K | 0.0144
in isopropanol, 332.97 K | 0.0165
in isopropanol, 338.17 K | 0.0189
in isopropanol, 342.94 K | 0.0223
in isopropanol, 347.8 K | 0.0257
in toluene, 293.15 K | 0.00049
in toluene, 303.16 K | 0.00074
in toluene, 313.18 K | 0.00107
in toluene, 323.08 K | 0.00157
in toluene, 333.17 K | 0.00232
in toluene, 343.25 K | 0.00326
in toluene, 352.95 K | 0.00462
in toluene, 362.65 K | 0.00651
in water, 303.14 K | 5e-05
in water, 313.17 K | 8e-05
in water, 323.13 K | 0.00011
in water, 333 K | 0.00014
in water, 343.05 K | 0.00018
in water, 353.05 K | 0.00023
